Data from PubChem BioAssay AID256 (DTP/NCI, 2004).
Values joined by “and” are separate entries in the source; they are usually repeats but may differ in a detail not shown here. Equal values may be shown once. Inconclusive results and toxic doses are left out. Rule for the calls: active = survival T/C of 150% or more; inactive = T/C below 125% in these data.

Tested on: CD2F1 mice, L1210 leukemia ip, survival T/C
Assay: NCI In Vivo Anticancer Drug Screen. Data for tumor model L1210 Leukemia (intraperitoneal) in CD2F1 (CDF1) mice
Conditions: endpoint: mean survival time, higher = longer survival
In short: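 Ratio T/C, where T is the treated-group value and C the vehicle-dosed control value, from mice implanted with a transplantable tumor.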

[1] = dose: 100.0 mg/kg/injection, schedule: Q04DX003 (ip), vehicle: saline
[2] = dose: 200.0 mg/kg/injection, schedule: Q04DX003 (ip), vehicle: saline
[3] = dose: 400.0 mg/kg/injection, schedule: Q04DX003 (ip), vehicle: saline
[4] = dose: 100.0 mg/kg/injection, schedule: Q01DX001 (ip), vehicle: saline
[5] = dose: 200.0 mg/kg/injection, schedule: Q01DX001 (ip), vehicle: saline
[6] = dose: 100.0 mg/kg/injection, schedule: Q01DX009 (ip), vehicle: saline with Tween-80
[7] = dose: 200.0 mg/kg/injection, schedule: Q01DX009 (ip), vehicle: saline with Tween-80
[8] = dose: 400.0 mg/kg/injection, schedule: Q01DX009 (ip), vehicle: saline with Tween-80
[9] = dose: 100.0 mg/kg/injection, schedule: Q01DX001 (ip), vehicle: saline with Tween-80
[10] = dose: 100.0 mg/kg/injection, schedule: Q04DX003 (ip), vehicle: saline with Tween-80
[11] = dose: 200.0 mg/kg/injection, schedule: Q01DX001 (ip), vehicle: saline with Tween-80
[12] = dose: 200.0 mg/kg/injection, schedule: Q04DX003 (ip), vehicle: saline with Tween-80
[13] = dose: 400.0 mg/kg/injection, schedule: Q01DX001 (ip), vehicle: saline with Tween-80
[14] = dose: 400.0 mg/kg/injection, schedule: Q04DX003 (ip), vehicle: saline with Tween-80

Measured: T/C

CN(C)CCN(C)CCN(C)CCN(C)C
inactive: [1] 95 % of control | [2] 97 % of control | [3] 108 % of control

O=C1[O][Sb]23[O]C(=O)C([O]2)C(O)C(O)C2[O][Sb]4([O]C(=O)C([O]4)C(O)C(O)C1[O]3)[O]C2=O (configuration not stated)
inactive: dose: 25.0 mg/kg/injection, schedule: Q01DX009 (ip), vehicle: saline 95 % of control | dose: 50.0 mg/kg/injection, schedule: Q01DX001 (ip), vehicle: saline 97 % of control | dose: 50.0 mg/kg/injection, schedule: Q01DX009 (ip), vehicle: saline 95 % of control | dose: 50.0 mg/kg/injection, schedule: Q04DX003 (ip), vehicle: saline 87 % of control | [4] 101 % of control | dose: 100.0 mg/kg/injection, schedule: Q01DX009 (ip), vehicle: saline 98 % of control | [1] 91 % of control | [5] 96 % of control

CN(C)c1ccc(/C=N/NC(=O)CNC(=O)c2ccccc2)cc1
inactive: [6] 95 % of control | [7] 89 % of control | [8] 89 % of control

Cc1ccc(S(=O)(=O)OC2CNP(=O)(N(CCCl)CCCl)OC2)cc1 (configuration not stated)
inactive: dose: 25.0 mg/kg/injection, schedule: Q01DX001 (ip), vehicle: DMSO 96 % of control | dose: 50.0 mg/kg/injection, schedule: Q01DX001 (ip), vehicle: DMSO 100 % of control | dose: 100.0 mg/kg/injection, schedule: Q01DX001 (ip), vehicle: DMSO 94 % of control | dose: 200.0 mg/kg/injection, schedule: Q01DX001 (ip), vehicle: DMSO 100 % of control | dose: 400.0 mg/kg/injection, schedule: Q01DX001 (ip), vehicle: DMSO 98 % of control | dose: 800.0 mg/kg/injection, schedule: Q01DX001 (ip), vehicle: DMSO 91 % of control

O=c1ccn(C2OC(CO)C3[O][Sn]([c]4ccccc4)([c]4ccccc4)[O]C32)c(=O)[nH]1 (configuration not stated)
inactive: dose: 1.56 mg/kg/injection, schedule: Q01DX005 (ip), vehicle: other 110 % of control | dose: 3.13 mg/kg/injection, schedule: Q01DX005 (ip), vehicle: other 107 % of control | dose: 6.25 mg/kg/injection, schedule: Q01DX005 (ip), vehicle: other 98 % of control | dose: 12.5 mg/kg/injection, schedule: Q01DX005 (ip), vehicle: other 102 % of control and 105 % of control

O=C1CCCC/C1=N\Nc1ccccc1
inactive: [4] 91 % of control | [5] 89 % of control | dose: 400.0 mg/kg/injection, schedule: Q01DX001 (ip), vehicle: saline 97 % of control

O=C(N/N=C/c1ccc([N+](=O)[O-])cc1[N+](=O)[O-])c1ccncc1
inactive: dose: 12.5 mg/kg/injection, schedule: Q01DX009 (ip), vehicle: other 95 % of control | dose: 25.0 mg/kg/injection, schedule: Q01DX009 (ip), vehicle: other 91 % of control | dose: 50.0 mg/kg/injection, schedule: Q01DX009 (ip), vehicle: other 91 % of control | dose: 100.0 mg/kg/injection, schedule: Q01DX009 (ip), vehicle: other 89 % of control | dose: 200.0 mg/kg/injection, schedule: Q01DX009 (ip), vehicle: other 93 % of control

O.O=S(=O)([O-])O.O=[N+]([O-])O.[Co+3].[NH2-].[NH2-].[NH2-].[NH2-]
inactive: dose: 100.0 mg/kg/injection, schedule: Q04DX002 (ip), vehicle: saline with Tween-80 94 % of control | dose: 200.0 mg/kg/injection, schedule: Q04DX002 (ip), vehicle: saline with Tween-80 97 % of control

Clc1nc2ccccc2[nH]1
inactive: [1] 98 % of control | [2] 100 % of control | [3] 90 % of control

CC(O)C(O)C(O)C(/C=N\N=C(/N)[S-])=N/N=C(\N)[S-].[Pt+2] (configuration not stated)
inactive: [9] 111 % of control | [6] 91 % of control | [10] 88 % of control | [11] 104 % of control | [7] 94 % of control | [12] 96 % of control | [13] 106 % of control | [8] 89 % of control | [14] 89 % of control

N#CCCN1C(=O)CCC1=O
inactive: [6] 97 % of control | [10] 95 % of control | [7] 95 % of control | [12] 97 % of control | [8] 92 % of control | [14] 95 % of control

COc1cc([NH-])c([NH-])cc1OC.[Cl][Pt+2][Cl]
inactive: dose: 1.25 mg/kg/injection, schedule: Q01DX009 (ip), vehicle: saline with Tween-80 103 % of control | dose: 2.5 mg/kg/injection, schedule: Q01DX009 (ip), vehicle: saline with Tween-80 107 % of control | dose: 5.0 mg/kg/injection, schedule: Q01DX009 (ip), vehicle: saline with Tween-80 105 % of control | dose: 10.0 mg/kg/injection, schedule: Q01DX009 (ip), vehicle: saline with Tween-80 106 % of control | dose: 20.0 mg/kg/injection, schedule: Q01DX009 (ip), vehicle: saline with Tween-80 104 % of control and 111 % of control | dose: 40.0 mg/kg/injection, schedule: Q01DX009 (ip), vehicle: saline with Tween-80 107 % of control | dose: 80.0 mg/kg/injection, schedule: Q01DX009 (ip), vehicle: saline with Tween-80 107 % of control | dose: 160.0 mg/kg/injection, schedule: Q01DX009 (ip), vehicle: saline with Tween-80 92 % of control

N#CSCc1cc(Cl)c(CSC#N)c(Cl)c1Cl
inactive: dose: 75.0 mg/kg/injection, schedule: Q04DX003 (ip), vehicle: saline 101 % of control | dose: 150.0 mg/kg/injection, schedule: Q04DX003 (ip), vehicle: saline 96 % of control | dose: 300.0 mg/kg/injection, schedule: Q04DX003 (ip), vehicle: saline 97 % of control

Oc1ccc(N=Nc2ccccn2)c(O)c1
inactive: [10] 97 % of control | [12] 112 % of control | [14] 93 % of control

CCCCCCCCCCCCCCCCCCCCCC(O)(CC)CC
inactive: [6] 97 % of control | [10] 94 % of control | [7] 94 % of control | [12] 94 % of control | [8] 100 % of control | [14] 95 % of control

Cc1ccc(C2=C(Br)C(=O)C(c3ccc(C)cc3C)=C(Br)C2=O)c(C)c1
inactive: [9] 92 % of control | [11] 92 % of control | [13] 101 % of control

CN(C)/N=C(\CBr)c1ccc(Br)cc1
inactive: [4] 103 % of control | [5] 100 % of control

O=C(Nc1ccc(S(=O)(=O)N2CCCCC2)cc1)Oc1ccc([N+](=O)[O-])cc1
inactive: dose: 5.0 mg/kg/injection, schedule: Q01DX001 (ip), vehicle: other 97 % of control | dose: 10.0 mg/kg/injection, schedule: Q01DX001 (ip), vehicle: other 108 % of control | dose: 20.0 mg/kg/injection, schedule: Q01DX001 (ip), vehicle: other 100 % of control | dose: 40.0 mg/kg/injection, schedule: Q01DX001 (ip), vehicle: other 100 % of control | dose: 80.0 mg/kg/injection, schedule: Q01DX001 (ip), vehicle: other 96 % of control
